Laboratory results published in US20210196779A1, “Compositions and Methods for Treating Steroid Hormone-Related Diseases or Disorders” (YALE UNIVERSITY, priority 2018, published 2021).

What was measured:
[1] = tested on: KLK2 mRNA; assay: qRT-PCR of KLK2 mRNA in 22RV1 cells; type: cell-based, Human; conditions: 22RV1 cells treated overnight, normalized to beta-actin
Description: (§1) FIGS. 4C-4D are graphs showing the effect of Y1830, RG (or the fraction comprising RG) and RGA (or the fraction comprising RGA) on the mRNA of PSA (FIG. 4C) and KLK2 (FIG. 4D). 22RV1 cells were treated with Y1830, RGA or RG overnight and mRNA was extracted for qRT-PCR to determine the mRNA expression level of PSA and KLK2 as normalized to beta-actin.
(§2) RNA was extracted from herb treated cells using the Roche High Pure RNA isolation kit. cDNA was then generated from RNA samples using a Bio-rad iScript Advanced cDNA synthesis kit for RT-qPCR. qPCR was performed using human NRF2, H01, NQO1 and β-actin primers (Table 1) and iTaq™ Universal SYBR® Green Supermix in a CFX PCR machine (Bio-rad). Relative mRNA expression was calculated based on the change of the threshold cycle relative to the internal control, β-actin, using a standard curve generated by purified PCR products.

[2] = tested on: different prostate cell lines; assay: Growth of different prostate cell lines, all conditions; type: cell-based; conditions: under all conditions, up to 500 ng/ml
Description: 20,000 cells in 1 ml of medium (phenol red free RPMI1640, 5% charcoal-dialysis FBS, 50 μg/ml Kanamyacin) were seeded per well of a 24-well plate and incubated in a 37° C. incubator with 5% CO2 overnight. […] For prostate cancer cells, DHT (25 nM) was used to stimulate androgen receptor activity. For glucocorticoid receptor overexpressed LNCaP cells, dexamethasone (50 nM) was used to stimulate glucocorticoid receptor activity. For all breast cancer cells, E2 (10 nM) was used to stimulate ER activity. Control medium without any steroid hormone was used as a control setting. After 4 days of incubation, cells were fixed and stained for 2 h with 0.5% methylene blue in 50% ethanol, followed by washing with tap water to remove unbound dye. Plates were air dried and then cells were dissolved in 1% sarkosyl (sodium lauroyl sarcosinate) by shaking at room temperature for 3 h. Cell growth was quantified based on the amount of methylene blue adsorbed by the cells as measured by a spectrophotometer (Molecular Devices) at 595 nm. All experiments were performed in triplicate wells and were repeated at least three times.

[3] = tested on: PSA mRNA; assay: qRT-PCR of PSA mRNA in 22RV1 cells; type: cell-based, Human; conditions: 22RV1 cells treated overnight, normalized to beta-actin
Description: as §1, §2

[4] = tested on: 22RV1 tumor; assay: Inhibition of 22RV1 prostate cancer growth in nude mice; type: in vivo; conditions: equivalent dose to Y1830 (2.2 mg/kg, PO, B.I.D.), 11 days
Description: 22RV1 prostate cancer cells 5×10^6 cells in 100 μl Matrigel were injected subcutaneously into 10 week old male NCR nude mice. When 22RV1 tumor reached 5 mm×5 mm, mice were orally fed with Y1830 (water extract, 500 mg/kg, PO, B.I.D, N5) and RGA (or the fraction comprising RGA) (equivalent dose to Y1830: 2.2 mg/kg, PO, B.I.D.) for 11 days. Tumor volume was estimated by using the formula length×width^2/2.
When tumors reached 5 mm×5 mm, Y1830 water extract (500 mg/kg, BID, PO) and RGA (or the fraction comprising RGA) at equivalent dose to Y1830 were used to treat animals for 11 days. […] Therefore, it is further concluded that compounds other than molecules in RGA containing fraction of Y1830 total extract may also have anti-tumor activity or prevent tumor to develop drug resistant.

[5] = tested on: Gata3; assay: Western blot, MCF7 cells, Gata3; type: cell-based; conditions: 24 h
Description: Western blot analysis was used to determine the protein expression using protein specific antibodies.
Total cell lysis was conducted using 2×SDS sample buffer (62.5 mM Tris-HCl, 2% SDS, 10% glycerol, 50 mM DTT, and 0.05% bromophenol blue). The samples were sonicated for 10 s to shear DNA. Cell nuclei were isolated using Tris buffer saline with 0.4% NP40. Cell extracts were then electrophoresed through 10% SDS-polyacrylamide gels and transferred to 0.2 μm nitrocellulose membranes (Bio-Rad Laboratories, Hercules, Calif.) with a Miniprotein II transferring apparatus (Bio-Rad). The membranes were blocked and probed in TBS-T buffer (1×TBS buffer, 0.2% Tween 20) containing 5% non-fat milk. Monoclonal rabbit anti-AR (1:5000), was used to detect androgen receptor (Abcam #133273), Glucocorticoid Receptor (D8H2) XP® Rabbit mAb #3660, ERa Antibody (F-10): sc-8002, BRD4 (E2A7X) Rabbit mAb #13440, Brd2 (D89B4) Rabbit mAb #5848, PARP (46D11) Rabbit mAb #9532, Acetyl-Histone H3 (Lys27) (D5E4) XP® Rabbit mAb #8173 and a monoclonal actin antibody diluted 1:2500 (Sigma, St. Louis, Mo.) was used to detect β-actin as the internal control to confirm equal protein loading. […] Enhanced chemiluminescence reagents (Perkin-Elmer Life Science Products, Boston, Mass.) were used to visualize the immunoreactive bands and the densities of protein bands were scanned analyzed using ImageJ software from the NIH.

[6] = target: glucocorticoid receptor (GR) (Homo sapiens, UniProt P04150); assay: PSA-luciferase reporter assay, DEX induced, PC3 cells; type: cell-based; design: Western blot analysis for AR and GR protein expression in LNCaP, 22RV1 and PC3 cells; endogenous in cells; host or cells: PC3
Description: Reporter cells were treated with herbal extracts at 30, 100, 300, and 1000 μg/ml for 24 h in a 37° C.-CO2 incubator. DHT (25 nM) was used to stimulate androgen receptor activity. Dexamethasone (50 nM) was used to stimulate glucocorticoid receptor activity Cells were lysed using luciferase lysis buffer after which luciferase buffer with luciferin was added to generate luminescence. Luminescence was recorded using a luminescence microplate reader.

glucocorticoid receptor (GR), sequence (P04150 whole entry): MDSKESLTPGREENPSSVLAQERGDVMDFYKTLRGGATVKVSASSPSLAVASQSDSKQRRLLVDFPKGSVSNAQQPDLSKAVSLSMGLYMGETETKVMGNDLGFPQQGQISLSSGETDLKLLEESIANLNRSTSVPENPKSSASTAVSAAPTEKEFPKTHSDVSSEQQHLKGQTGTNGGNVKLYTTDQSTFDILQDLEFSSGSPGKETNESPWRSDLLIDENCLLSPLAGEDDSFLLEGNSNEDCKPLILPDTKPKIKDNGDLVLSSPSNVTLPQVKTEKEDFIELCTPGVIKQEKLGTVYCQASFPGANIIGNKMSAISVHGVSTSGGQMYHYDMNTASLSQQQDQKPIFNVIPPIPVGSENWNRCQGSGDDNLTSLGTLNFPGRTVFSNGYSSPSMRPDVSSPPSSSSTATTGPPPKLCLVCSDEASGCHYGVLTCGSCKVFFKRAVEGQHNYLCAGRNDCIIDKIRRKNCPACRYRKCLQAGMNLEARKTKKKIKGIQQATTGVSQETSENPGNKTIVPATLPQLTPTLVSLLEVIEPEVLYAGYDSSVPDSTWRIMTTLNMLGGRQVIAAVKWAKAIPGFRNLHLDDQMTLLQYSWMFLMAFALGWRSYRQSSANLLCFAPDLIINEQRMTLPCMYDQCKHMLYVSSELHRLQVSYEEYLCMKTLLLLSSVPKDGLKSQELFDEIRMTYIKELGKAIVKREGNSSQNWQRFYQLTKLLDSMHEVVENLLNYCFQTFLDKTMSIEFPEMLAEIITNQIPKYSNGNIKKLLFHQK

Row | inhibitory effect on DEX induced transcriptional response [6] | Structure (SMILES) | inhibition of mRNA expression of KLK2 [1] | inhibitory effect on cell growth (in words) [2] | inhibition of mRNA expression of PSA [3] | inhibition on 22RV1 tumor growth [4] | Gata3 protein expression [5]
1 |  | Cc1c(OC2OC(CO)C(O)C(O)C2OC2OC(C)C(O)C(O)C2O)cc2c(c1O)C(=O)c1ccc(O)cc1C2=O [RG, 1,3,6-Trihydroxy-2-methyl-9,10-anthracenedione 3-O-[α-L-Rhamnopyranosyl-(1→2)-β-D-glucopyranoside]] | did not demonstrate this level of activity | did not any show inhibitory effect | did not demonstrate this level of activity |  | 
2 | inhibitory effect | CC(=O)OCC1OC(Oc2cc3c(c(O)c2C)C(=O)c2ccc(O)cc2C3=O)C(OC2OC(C)C(O)C(O)C2O)C(O)C1O [RGA, 1,3,6-Trihydroxy-2-methyl-9,10-anthracenedione 3-O-[α-L-Rhamnopyranosyl-(1→2)-6-O-acetyl-β-D-glucopyranoside]] |  |  |  | significant inhibition on 22RV1 tumor growth from day 2 to day 6 | downregulation
